In patent US12173330B2, “Method for producing hydroxy-L-pipecolic acid” (API CORPORATION, priority 2015, dated 2024):
Where two headings read alike, the source gives them in different places.

Legend:
[1] = molecular target: T1, Xenorhabdus doucetiae FRM16 L-proline cis-4-hydroxylase XdPH, SEQ ID NO: 8 (Xenorhabdus doucetiae, UniProt A0A068QPC1); type: biochemical; conditions: for kcat: calculated from Vmax and molecular weight
T1 sequence (A0A068QPC1 1-294): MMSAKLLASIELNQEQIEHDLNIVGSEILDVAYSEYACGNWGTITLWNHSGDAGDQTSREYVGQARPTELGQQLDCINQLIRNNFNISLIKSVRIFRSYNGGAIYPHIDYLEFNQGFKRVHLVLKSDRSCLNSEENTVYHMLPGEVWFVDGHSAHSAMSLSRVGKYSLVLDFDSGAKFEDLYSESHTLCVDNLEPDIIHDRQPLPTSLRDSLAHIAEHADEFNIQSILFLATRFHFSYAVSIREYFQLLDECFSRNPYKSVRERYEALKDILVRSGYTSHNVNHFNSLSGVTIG

[2] = system: Kordia jejudonensis amino acid hydroxylase KjPH, SEQ ID NO: 18; type: biochemical; conditions: for Km / Vmax: 20 mmol/L 2-oxoglutaric acid, 30° C.; for kcat: calculated from Vmax and molecular weight
[3] = molecular target: Colletotrichum gloeosporioides Nara qc5 L-pipecolic acid trans-4-hydroxylase CgPH, SEQ ID NO: 12 (Colletotrichum fructicola, UniProt L2G7W2)
[4] = molecular target: Sinorhizobium meliloti 1021 L-proline cis-4-hydroxylase SmPH, SEQ ID NO: 10 (Sinorhizobium meliloti, UniProt Q92LF6); type: biochemical; conditions: for kcat: calculated from Vmax and molecular weight
[5] = system: Micromonospora chokoriensis amino acid hydroxylase McPH (L-pipecolic acid 5-hydroxylase), wild type, SEQ ID NO: 2; type: biochemical
[6] = molecular target: Segniliparus rugosus ATCC BAA-974 L-pipecolic acid cis-5-hydroxylase SruPH, SEQ ID NO: 4 (Segniliparus rugosus, UniProt E5XT07); conditions: for Vmax: 20 mmol/L 2-oxoglutaric acid, 30° C.; for kcat: calculated from Vmax and molecular weight
[7] = molecular target: Gibberella zeae PH-1 L-pipecolic acid trans-4-hydroxylase GzPH, SEQ ID NO: 16 (Fusarium graminearum, UniProt I1RHG1)
[8] = molecular target: T2, Catenulispora acidiphila NBRC102108 L-proline cis-4-hydroxylase CaPH, SEQ ID NO: 6 (Catenulispora acidiphila, UniProt C7Q927); type: biochemical; conditions: substrate: L-proline; calculated from Vmax and molecular weight
T2 sequence (C7Q927 1-290): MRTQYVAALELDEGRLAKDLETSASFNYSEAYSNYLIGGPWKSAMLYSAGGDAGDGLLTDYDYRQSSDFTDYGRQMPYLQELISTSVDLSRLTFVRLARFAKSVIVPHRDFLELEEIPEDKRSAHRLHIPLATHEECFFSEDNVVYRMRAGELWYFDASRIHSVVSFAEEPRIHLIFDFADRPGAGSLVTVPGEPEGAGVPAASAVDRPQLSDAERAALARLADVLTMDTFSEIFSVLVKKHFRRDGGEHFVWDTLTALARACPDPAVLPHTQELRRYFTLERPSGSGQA

[9] = substrate: L-pipecolic acid, 20 mmol/L 2-oxoglutaric acid, 30° C.
[10] = substrate: L-pipecolic acid, calculated from Vmax and molecular weight
[11] = substrate: L-proline, 20 mmol/L 2-oxoglutaric acid, 30° C.

How did the kcat ([1]; substrate: L-pipecolic acid) turn out when `O=C(O)[C@@H]1CCCCN1` [L-pipecolic acid] was run?
Its kcat is 0.64.

What about the Km ([2]; substrate: L-pipecolic acid) of the same compound?
The Km was 490 µM.

What about the Vmax ([2]; substrate: L-pipecolic acid) of the same compound?
Its Vmax is 0.30 U/mg-protein.

What about the kcat ([2]; substrate: L-pipecolic acid) of the same compound?
The kcat was 0.16.

And the Vmax [3, 9]?
Its Vmax is 70.42 U/mg-protein.

And the kcat [3, 10]?
The kcat was 43.80.

And the kcat ([4]; substrate: L-pipecolic acid)?
Its kcat is 0.02.

What about the Km [5, 9] of the same compound?
The Km was 240 µM.

And the Vmax [5, 9]?
The Vmax was 0.06 U/mg-protein.

And the kcat [5, 10]?
Its kcat is 0.03.

And the Vmax ([6]; substrate: L-pipecolic acid)?
The Vmax was 0.05 U/mg-protein.

And the kcat ([6]; substrate: L-pipecolic acid)?
Its kcat is 0.03.

What about the Vmax [7, 9] of the same compound?
The Vmax was 114.94 U/mg-protein.

And the kcat [7, 10]?
The kcat was 72.48.

Which results are given for `O=C(O)[C@@H]1CCCN1` [L-proline]?
catalytic reaction efficiency for L-proline relative to that for L-pipecolic acid ([1]; kcat/Km ratio): 119%; Vmax [1, 11]: 1.44 U/mg-protein; kcat ([1]; substrate: L-proline): 0.80; catalytic reaction efficiency for L-proline relative to that for L-pipecolic acid ([2]; kcat/Km ratio): 115%; Km ([2]; substrate: L-proline): 480 µM; Vmax ([2]; substrate: L-proline): 0.34 U/mg-protein; kcat ([2]; substrate: L-proline): 0.18; catalytic reaction efficiency for L-proline relative to that for L-pipecolic acid ([3]; kcat/Km ratio): 0; catalytic reaction efficiency for L-proline relative to that for L-pipecolic acid ([4]; kcat/Km ratio): 114%; Vmax [4, 11]: 0.06 U/mg-protein; kcat ([4]; substrate: L-proline): 0.03; kcat [8]: 0.01; catalytic reaction efficiency for L-proline relative to that for L-pipecolic acid ([5]; kcat/Km ratio): 0; catalytic reaction efficiency for L-proline relative to that for L-pipecolic acid ([6]; kcat/Km ratio): 754%; Vmax ([6]; substrate: L-proline): 0.13 U/mg-protein; kcat ([6]; substrate: L-proline): 0.07; catalytic reaction efficiency for L-proline relative to that for L-pipecolic acid ([7]; kcat/Km ratio): 0
